{"source": "patent US20110269942A1", "about": "“ANTIBODIES MODIFIED WITH HYDROPHOBIC MOLECULE” (DAIICHI SANKYO COMPANY, LIMITED, priority 2007, published 2011)", "key": {"Jurkat cells": {"tested_on": "Jurkat cells", "assay": "Apoptosis-inducing activity of hydrophobic molecule-modified antibodies against Jurkat cells (cell viability from ATP level; method of Test Example 13)", "assay_type": "cell-based, human", "details": "72 hr"}, "BxPC-3 cells": {"tested_on": "BxPC-3 cells", "assay": "Apoptosis-inducing activity of hydrophobic molecule-modified antibodies against BxPC-3 cells (cell viability from ATP level)", "assay_type": "cell-based, human"}, "[1]": {"tested_on": "human colon cancer strain COLO 205", "assay": "Antitumor activity against human colon cancer strain COLO 205-transplanted nude mice (tumor volume, rate of tumor growth)", "assay_type": "in vivo, nude mice BALB/cA Jcl-nu", "details": "0.33 mg/ml, 0.1 ml per 10 g body weight i.v., Days 8, 11, 13, 15, 18, 20, 22, 25, 27", "procedure": "The in-vivo antitumor activity of the immunoliposome prepared in Example 5 was studied. 2×10^6 cells of a human colon cancer strain COLO 205 (purchased from American Type Culture Collection) which was confirmed by quarantine to have no detectable mouse pathogenic microorganisms were hypodermically transplanted to the axillary region of nude mice BALB/cA Jcl-nu (CLEA Japan, Inc.). The immunoliposome of Example 5 was diluted, immediately before its administration, with saline (Otsuka Pharmaceutical Co., Ltd.) to 1 and 0.33 mg/ml in terms of antibody concentrations. Seven days after the transplantation, the administration of the immunoliposome of Example 5 to COLO 205 cancer-bearing mice in which the tumor successfully grafted was started. […]\nThe major axis and minor axis of the transplanted tumor were measured two to three times a week using an electronic vernier caliper (CD-15C; Mitutoyo Corp.). The tumor volume was determined according to the following calculation formula:\nTumor volume (mm^3)=½×minor axis^2 (mm)×major axis (mm).\nMoreover, the rate of tumor growth (mm^3/day) of each individual was calculated, and the statistically significant difference was tested by a Dunnett test using the value. In this context, a P value less than 0.05 was regarded as being a significant difference among groups. […]"}, "[2]": {"tested_on": "human malignant melanoma cell strain A2058 cells", "assay": "Apoptosis-inducing activity of immunoliposomes against A2058 cells (cell viability from ATP level)", "assay_type": "cell-based", "details": "antibody not conjugated to an immunoliposome", "procedure": "(§1) Jurkat cells were counted by a trypan blue staining method, and the concentration was then adjusted to 1×10^5 cells/ml with a DMEM medium (manufactured by Invitrogen Corp.; hereinafter, referred to as a DMEM medium) containing 10% fetal calf serum (manufactured by Hyclone Laboratories, Inc.). […] To this microplate, the cell suspension was inoculated in an amount of 50 μl (5×10^3 cells)/well. The plate was cultured at 37° C. for 72 hr in the presence of 5% carbon dioxide, and the ATP level of each well was measured. […] Then, the supernatant was transferred in an amount of 100 μl/well to a 96-well white microplate (manufactured by Corning Inc.), and luminescence from each well was measured using a luminometer (manufactured by Molecular Devices Corp.). […] The cell viability of each well was calculated according to the following equation:\n(§2) Cell viability (%)=(Luminescence intensity of test wells−Average luminescence intensity of background wells)/(Average luminescence intensity of negative control wells−Average luminescence intensity of background wells)×100.\nThe apoptosis-inducing activities against human malignant melanoma cell strain A2058 cells were measured according to the method described in Test Example 1."}, "[3]": {"tested_on": "human malignant melanoma cell strain A375 cells", "assay": "Apoptosis-inducing activity of immunoliposomes against A375 cells (cell viability from ATP level)", "assay_type": "cell-based", "details": "antibody not conjugated to an immunoliposome", "procedure": "as §1, §2\nThe apoptosis-inducing activities against human malignant melanoma cell strain A375 cells were measured according to the method described in Test Example 1."}, "[4]": {"biological_target": "human DR5 (death receptor 5) (human) (UniProt O14763)", "assay": "cell-based or functional assay"}, "human Fas": {"biological_target": "T1, human Fas (human, UniProt P25445 26-335)", "T1 sequence (looked up)": "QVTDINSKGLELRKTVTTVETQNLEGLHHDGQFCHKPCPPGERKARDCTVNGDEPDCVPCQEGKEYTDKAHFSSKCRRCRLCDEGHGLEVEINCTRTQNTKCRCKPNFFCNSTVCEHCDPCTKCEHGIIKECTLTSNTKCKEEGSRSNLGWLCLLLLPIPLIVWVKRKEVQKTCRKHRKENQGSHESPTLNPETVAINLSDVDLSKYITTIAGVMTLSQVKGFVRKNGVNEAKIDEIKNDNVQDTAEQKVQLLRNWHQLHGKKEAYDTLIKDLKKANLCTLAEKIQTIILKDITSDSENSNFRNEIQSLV", "assay": "cell-based or functional assay"}}}
{"molecule": "Example 40: Chol-PEG5000-modified hTRA-8 Fab′ (Cys)", "values": [{"measurement": "apoptosis-inducing activity compared with that of secondary antibody-cross-linked hTRA-8", "setting": "Jurkat cells", "value": "equivalent to or stronger"}]}
{"molecule": "Example 37: DSPE-PEG2000-modified hTRA-8 Fab′ (Cys), reaction ratio 1:1", "values": [{"measurement": "apoptosis-inducing activity compared with that of secondary antibody-cross-linked hTRA-8", "setting": "BxPC-3 cells", "value": "stronger"}, {"measurement": "apoptosis-inducing activity compared with that of secondary antibody-cross-linked hTRA-8", "setting": "Jurkat cells", "value": "equivalent to or stronger"}]}
{"molecule": "Example 35: DSPE-PEG2000-modified hTRA-8 Fullbody (Lys), reaction ratio 1:12", "values": [{"measurement": "apoptosis-inducing activity compared with that of secondary antibody-cross-linked hTRA-8", "setting": "Jurkat cells", "value": "stronger"}]}
{"molecule": "Example 38: DSPE-PEG10000-modified hTRA-8 Fab′ (Cys)", "values": [{"measurement": "apoptosis-inducing activity compared with that of secondary antibody-cross-linked hTRA-8", "setting": "Jurkat cells", "value": "equivalent to or stronger"}]}
{"molecule": "Example 45: DSPE-PEG3400-modified hTRA-8 Fullbody (Lys)", "values": [{"measurement": "apoptosis-inducing activity compared with that of secondary antibody-cross-linked hTRA-8", "setting": "Jurkat cells", "value": "stronger"}]}
{"molecule": "Example 52: PEG2000-modified hTRA-8 Fullbody (Lys), hydrophobic molecule-free, water-soluble linker-modified antibody", "values": [{"measurement": "apoptosis-inducing activity (in words)", "setting": "BxPC-3 cells; 1000, 100, 10, or 1 ng/ml", "value": "weak"}]}
{"molecule": "Example 47: DSPE-PEG2000-modified hTRA-8 Fullbody (Lys), reaction ratio 1:1, large scale", "values": [{"measurement": "antitumor activity (rate of tumor growth, Dunnett test)", "setting": "[1]", "value": "antitumor activity with a statistically significant difference"}]}
{"molecule": "hTRA-8 Fab′ fragment: Fab′ obtained by reducing hTRA-8 F(ab′)2 with DTT", "values": [{"measurement": "apoptosis-inducing activity (in words)", "setting": "BxPC-3 cells; 1000, 100, 10, or 1 ng/ml", "value": "hardly exhibited an apoptosis-inducing activity"}]}
{"molecule": "Example 33: DSPE-PEG2000-modified hTRA-8 Fullbody (Lys), reaction ratio 1:1", "values": [{"measurement": "apoptosis-inducing activity compared with that of secondary antibody-cross-linked hTRA-8", "setting": "Jurkat cells", "value": "stronger"}]}
{"molecule": "hTRA-8 F(ab′)2 fragment: F(ab′)2 fragment obtained by pepsin digestion of hTRA-8", "values": [{"measurement": "apoptosis-inducing activity (in words)", "setting": "BxPC-3 cells; 1000, 100, 10, or 1 ng/ml", "value": "hardly exhibited an apoptosis-inducing activity"}]}
{"molecule": "Example 41: DSPE-PEG10000-modified hTRA-8 Fullbody (Lys)", "values": [{"measurement": "apoptosis-inducing activity compared with that of secondary antibody-cross-linked hTRA-8", "setting": "Jurkat cells", "value": "stronger"}]}
{"molecule": "Example 34: DSPE-PEG2000-modified hTRA-8 Fullbody (Lys), reaction ratio 1:4", "values": [{"measurement": "apoptosis-inducing activity compared with that of secondary antibody-cross-linked hTRA-8", "setting": "Jurkat cells", "value": "stronger"}]}
{"molecule": "Example 53: PEG5000-modified hTRA-8 Fullbody (Lys), hydrophobic molecule-free, water-soluble linker-modified antibody", "values": [{"measurement": "apoptosis-inducing activity (in words)", "setting": "BxPC-3 cells; 1000, 100, 10, or 1 ng/ml", "value": "weak"}]}
{"molecule": "Example 48: DSPE-PEG2000-modified hTRA-8 F(ab′)2 (Lys)", "values": [{"measurement": "apoptosis-inducing activity compared with that of secondary antibody-cross-linked hTRA-8", "setting": "BxPC-3 cells", "value": "stronger"}]}
{"molecule": "hTRA-8: antibody obtained by humanizing mouse anti-human DR5 antibody TRA-8; heavy chain SEQ ID NO: 1, light chain SEQ ID NO: 2", "values": [{"measurement": "apoptosis-inducing activity (in words)", "setting": "[2]", "value": "weak"}, {"measurement": "apoptosis-inducing activity (in words)", "setting": "BxPC-3 cells; uncross-linked with secondary antibody", "value": "weak"}, {"measurement": "apoptosis-inducing activity (in words)", "setting": "[3]", "value": "weak"}]}
{"molecule": "Example 54: PEG2000-modified hTRA-8 Fab′ (Cys), hydrophobic molecule-free, water-soluble linker-modified antibody", "values": [{"measurement": "apoptosis-inducing activity (in words)", "setting": "BxPC-3 cells; 1000, 100, 10, or 1 ng/ml", "value": "weak"}]}
{"molecule": "Example 46: DSPE-PEG5000-modified hTRA-8 Fullbody (Lys), reaction ratio 1:2", "values": [{"measurement": "apoptosis-inducing activity compared with that of secondary antibody-cross-linked hTRA-8", "setting": "BxPC-3 cells", "value": "stronger"}, {"measurement": "apoptosis-inducing activity compared with that of secondary antibody-cross-linked hTRA-8", "setting": "Jurkat cells", "value": "stronger"}]}
{"molecule": "DSPE-PEG2000-modified MAB631 Fullbody of Example 49 (antibody)", "values": [{"measurement": "EC50 (concentration exhibiting 50% cell viability), Jurkat cells, Test Example 20", "setting": "[4]", "value": 0.025, "unit": "ng/mL"}, {"measurement": "cell viability (Jurkat cells)", "setting": "[4]", "value": "< 10", "unit": "%"}, {"measurement": "EC50 relative to Ab, Jurkat cells, Test Example 20", "setting": "[4]; scale: fold", "value": 58.4}]}
{"molecule": "Example 32: DSPE-PEG2000-modified hTRA-8 Fab′ (Cys), reaction ratio 1:4", "values": [{"measurement": "apoptosis-inducing activity compared with that of secondary antibody-cross-linked hTRA-8", "setting": "Jurkat cells", "value": "stronger"}]}
{"molecule": "Example 36: DSPE-PEG2000-modified hTRA-8 Fullbody (Cys), reaction ratio 1:10", "values": [{"measurement": "apoptosis-inducing activity compared with that of secondary antibody-cross-linked hTRA-8", "setting": "Jurkat cells", "value": "stronger"}]}
{"molecule": "Example 43: Chol-PEG5000-modified hTRA-8 Fullbody (Lys)", "values": [{"measurement": "apoptosis-inducing activity compared with that of secondary antibody-cross-linked hTRA-8", "setting": "Jurkat cells", "value": "stronger"}]}
{"molecule": "Example 39: DPPE-PEG2000-modified hTRA-8 Fab′ (Cys)", "values": [{"measurement": "apoptosis-inducing activity compared with that of secondary antibody-cross-linked hTRA-8", "setting": "Jurkat cells", "value": "equivalent to or stronger"}]}
{"molecule": "Example 42: DPPE-PEG2000-modified hTRA-8 Fullbody (Lys)", "values": [{"measurement": "apoptosis-inducing activity compared with that of secondary antibody-cross-linked hTRA-8", "setting": "Jurkat cells", "value": "stronger"}]}
{"molecule": "DSPE-PEG2000-modified hHFE7A Fullbody of Example 50 (antibody, human IgG1, kappa, V domains shown, DSPE-PEG2000 on thiolated Lys (residue and chain not specified)) VH: QVQLVQSGAEVKKPGASVKVSCKASGYTFTSYWMQWVKQAPGQGLEWMGEIDPSDSYTNYNQKFKGKATLTVDTSTSTAYMELSSLRSEDTAVYYCARNRDYSNNWYFDVWGEGTLVTVSS VL: EIVLTQSPGTLSLSPGERATLSCKASQSVDYDGDSYMNWYQQKPGQAPRLLIYAASNLESGIPDRFSGSGSGTDFTLTISRLEPEDFAVYYCQQSNEDPRTFGQGTKLEIKR", "values": [{"measurement": "EC50 (concentration exhibiting 50% cell viability), Jurkat cells, Test Example 21", "setting": "human Fas", "value": 6.94, "unit": "ng/mL"}, {"measurement": "EC50 relative to Ab, Jurkat cells, Test Example 21", "setting": "human Fas", "value": "> 144 fold (control antibody EC50 / modified antibody EC50)"}]}
{"molecule": "anti-human Fas antibody hHFE7A (humanized HFE7A), Fullbody (antibody, human IgG1, kappa, V domains shown) VH: QVQLVQSGAEVKKPGASVKVSCKASGYTFTSYWMQWVKQAPGQGLEWMGEIDPSDSYTNYNQKFKGKATLTVDTSTSTAYMELSSLRSEDTAVYYCARNRDYSNNWYFDVWGEGTLVTVSS VL: EIVLTQSPGTLSLSPGERATLSCKASQSVDYDGDSYMNWYQQKPGQAPRLLIYAASNLESGIPDRFSGSGSGTDFTLTISRLEPEDFAVYYCQQSNEDPRTFGQGTKLEIKR", "values": [{"measurement": "Cross-linked Antibody EC50, Jurkat cells, Test Example 21", "setting": "human Fas", "value": "> 1000", "unit": "ng/mL"}]}
